Test results from patent US20200165194A1, “ADDITIVE COMPOSITION FOR CULTURE MEDIUM, ADDITIVE COMPOUND FOR CULTURE MEDIUM, AND METHOD FOR CULTURE OF CELLS OR TISSUE USING SAME” (NISSAN CHEMICAL CORPORATION, priority 2017, published 2020).
Where two headings read alike, the source gives them in different places.

Tests used:
[1] = system: SKOV3 cells (human ovarian cancer-derived cell line); experiment: Cell proliferation activity in three-dimensional medium FCeM, ATP assay (Experimental Example 1); assay type: cell-based; conditions: SKOV3, 3D medium FCeM, 4 days, DMSO control = 100%, average of two tests; for proliferation rate (%): compound 5 μM
Experimental: A cell proliferation promoting effect when the compound to be used in the present invention was added to a three-dimensional medium was studied. Specifically, precultured (adhesion cultured) SKOV3 cells (human ovarian cancer-derived cell line) were recovered and suspended in a three-dimensional cell culture medium (“FCeM (registered trade mark)” (Nissan chemical corporation)) to prepare a cell suspension. […] The cell suspension seeded in the plate was stood overnight at 37° C., 5% CO2. Then, a DMSO diluted solution (4.44 μL) of the compound to be used in the present invention was added at a final concentration of 5 μM (or two steps of […] and 10 μM) (no stirring after addition). After addition of each compound, the mixtures were stood for 4 days at 37° C., 5% CO2. […] The luminescence intensity (RLU value) was measured by FlexStation3 (manufactured by Molecular Devices), and cell proliferation was evaluated.
The proliferation rate was calculated based on the control (cells added with DMSO without containing the compound to be used in the present invention) as the standard (100%). The values shown in the tables are average values of the results of two tests.

[2] = system: human ovarian cancer cell line SKOV3; experiment: Action on SKOV3 cell-2: 3D (deacylated gellan gum) and 2D culture, EGF medium, ATP assay (Experimental Example 3); conditions: for relative value of RLU (number of viable cells) / viability at 1 µM / viability at 5 µM / viability at 10 µM / viability at 20 µM: 4 days, compound non-addition = 100%; for viability at 1 µM / viability at 5 µM / viability at 10 µM / viability at 20 µM: Homo sapiens, SK-OV-3, 96 h
[3] = single layer culture (2D) of SKOV3 cells
[4] = three-dimensional culture (3D) of SKOV3 cells

Compound: CCC(=NNC(=O)CNc1cccc(C)c1)c1ccc(O)c(C)c1O [k-1:H-3]
- proliferation rate (%) [1]: 168.98%

Compound: CCCCCCCC/N=C(\CC)c1ccc(O)c(C)c1O [k-1:A-3]
- proliferation rate (%) (5 μM) [1]: 118.1%
- proliferation rate (%) (10 μM) [1]: 112.6%

Compound: CCC(=NNC(=O)CNc1ccccc1C)c1ccc(O)c(C)c1O [k-1:H-2]
- proliferation rate (%) [1]: 147.27%

Compound: Cc1c(O)ccc(C(CC(C)C)=NNC(=O)CNc2ccc(F)cc2)c1O [k-5:H-5]
- proliferation rate (%) [1]: 145.4%

Compound: CC(=NNC(=O)CNc1ccc(C)cc1)c1ccc(O)c(C)c1O [k-2:H-4]
- proliferation rate (%) [1]: 128.2%

Compound: CC(=NNC(=O)CNc1ccccc1)c1ccc(O)c(C)c1O [k-2:H-1]
- proliferation rate (%) [1]: 184.61%

Compound: CCC(Nc1ccccc1)C(=O)NN=C(C)c1ccc(O)c(C)c1O (centres unmarked) [k-2:H-7]
- proliferation rate (%) [1]: 201.93%

Compound: CCC(Nc1ccccc1)C(=O)NN=C(CC(C)C)c1ccc(O)c(C)c1O (centres unmarked) [k-5:H-7]
- proliferation rate (%) [1]: 130.63%

Compound: CC(=NNC(=O)CNc1cccc(C)c1)c1ccc(O)c(C)c1O [k-2:H-3]
- proliferation rate (%) [1]: 139.33%

Compound: CCC(=NNC(=O)CNc1cccc2ccccc12)c1ccc(O)c(C)c1O [k-1:H-6]
- proliferation rate (%) [1]: 125.68%

Compound: CCOc1ccc(NCC(=O)NN=C(C)c2ccc(O)c(C)c2O)cc1 [k-2:H-9]
- proliferation rate (%) [1]: 131.36%

Compound: CC(=NNC(=O)CNc1ccc(F)cc1)c1ccc(O)c(C)c1O [k-2:H-5]
- proliferation rate (%) [1]: 158.56%

Compound: CCC(=NNC(=O)CNc1ccc(F)cc1)c1ccc(O)c(C)c1O [k-1:H-5]
- proliferation rate (%) [1]: 154.19%

Compound: CC/C(=N\CC(=O)OCc1ccccc1)c1ccc(O)c(C)c1O [k-1:A-2]
- proliferation rate (%) (5 μM) [1]: 118.8%
- proliferation rate (%) (10 μM) [1]: 129.4%

Compound: Cc1ccccc1NCC(=O)NN=C(CC(C)C)c1ccc(O)c(C)c1O [k-5:H-2]
- proliferation rate (%) [1]: 133.96%

Compound: Cc1cccc(NCC(=O)NN=C(CC(C)C)c2ccc(O)c(C)c2O)c1 [k-5:H-3]
- proliferation rate (%) [1]: 146.44%

Compound: CCC(=NNC(=O)CNc1ccc(C)cc1)c1c(O)cc(O)c(C)c1O [k-3:H-4]
- proliferation rate (%) [1]: 135.5%

Compound: CCC(=NNC(=O)CNc1ccc(O)cc1)c1ccc(O)c(C)c1O [k-1:D-2]
- relative value of RLU (number of viable cells) ([2]; 2D single layer culture, 1 μM): 101%
- relative value of RLU (number of viable cells) ([2]; 2D single layer culture, 5 μM): 94%
- relative value of RLU (number of viable cells) ([2]; 2D single layer culture, 10 μM): 82%
- relative value of RLU (number of viable cells) ([2]; 2D single layer culture, 20 μM): 59%
- relative value of RLU (number of viable cells) ([2]; 3D culture (deacylated gellan gum), 1 μM): 116%
- relative value of RLU (number of viable cells) ([2]; 3D culture (deacylated gellan gum), 5 μM): 129%
- relative value of RLU (number of viable cells) ([2]; 3D culture (deacylated gellan gum), 10 μM): 143%
- relative value of RLU (number of viable cells) ([2]; 3D culture (deacylated gellan gum), 20 μM): 126%
- cell proliferation promoting effect (in words) [2, 3]: a favorable cell proliferation promoting effect was not observed
- cell proliferation promoting effect (in words) [2, 4]: exhibited cell proliferation promoting effect at a wide concentration range

Compound: CCC(=NNC(=O)CNc1ccc(F)cc1)c1c(O)cc(O)c(C)c1O [k-3:H-5]
- proliferation rate (%) [1]: 141.82%

Compound: Cc1c(O)ccc(C(CC(C)C)=NNC(=O)CNc2cccc3ccccc23)c1O [k-5:H-6]
- proliferation rate (%) [1]: 115.2%

Compound: CCC(=NNC(=O)CNc1cccc2ccccc12)c1c(O)cc(O)c(C)c1O [k-3:H-6]
- proliferation rate (%) [1]: 134.6%

Compound: CCOc1ccc(NCC(=O)NN=C(CC(C)C)c2ccc(O)c(C)c2O)cc1 [k-5:H-9]
- proliferation rate (%) [1]: 38.38%

Compound: CCOc1ccc(NCC(=O)NN=C(CC)c2c(O)cc(O)c(C)c2O)cc1 [k-3:H-9]
- proliferation rate (%) [1]: 129.93%

Compound: CCC(=NNC(=O)CNc1ccccc1C)c1c(O)cc(O)c(C)c1O [k-3:H-2]
- proliferation rate (%) [1]: 117.84%

Compound: CCOC(=O)C/N=C(\CC)c1ccc(O)c(C)c1O [k-1:A-1]
- proliferation rate (%) (5 μM) [1]: 119.1%
- proliferation rate (%) (10 μM) [1]: 119.4%

Compound: CC/C(=N\NC(=O)OCc1cccc(O)c1)c1ccc(O)c(C)c1O [k-1:N-1]
- viability at 1 µM ([2]; read-out: relative value of RLU (number of viable cells), 2D single layer culture, 1 μM): 101%
- viability at 5 µM ([2]; read-out: relative value of RLU (number of viable cells), 2D single layer culture, 5 μM): 94%
- viability at 10 µM ([2]; read-out: relative value of RLU (number of viable cells), 2D single layer culture, 10 μM): 89%
- viability at 20 µM ([2]; read-out: relative value of RLU (number of viable cells), 2D single layer culture, 20 μM): 84%
- viability at 1 µM ([2]; read-out: relative value of RLU (number of viable cells), 3D culture (deacylated gellan gum), 1 μM): 101%
- viability at 5 µM ([2]; read-out: relative value of RLU (number of viable cells), 3D culture (deacylated gellan gum), 5 μM): 134%
- viability at 10 µM ([2]; read-out: relative value of RLU (number of viable cells), 3D culture (deacylated gellan gum), 10 μM): 169%
- viability at 20 µM ([2]; read-out: relative value of RLU (number of viable cells), 3D culture (deacylated gellan gum), 20 μM): 186%
- cell proliferation promoting effect (in words) [2, 3]: a favorable cell proliferation promoting effect was not observed
- cell proliferation promoting effect (in words) [2, 4]: exhibited cell proliferation promoting effect at a wide concentration range
